Reference: publication PMC5640845, “Screening of FDA-Approved Drugs for Inhibitors of Japanese Encephalitis Virus Infection” (Journal of Virology, 2017)
Where a name gives a salt, the structure may show the parent alone.

Tests used:
JEV RVP [1] = experiment: in vitro; conditions: African green monkey, SI (selective index, CC50/IC50), Vero cells
JEV strain AT31 [2] = experiment: qRT-PCR quantification of JEV RNA in cell lysates; conditions: high-, middle- and low-dose groups, 24 h
ZIKV = ZIKV infection of Vero cells (viral titer, RNA, IFA); assay type: cell-based, Zika virus; conditions: 48 h; for ZIKV plaque formation: 10 μM, Vero cells
YFV = assay type: cell-based, yellow fever virus
[3] = system: JEV NS4B Q130 mutant viruses; assay type: cell-based, Japanese encephalitis virus
JEV RVP [4] = experiment: microbe, parasite or virus in culture; conditions: Japanese encephalitis virus, Vero; for IC50: 24 h; for inhibition at 10 µM: read-out: level of inhibition in the primary screen
JEV strain AT31 [5] = conditions: mouse, in vivo
[6] = Cytotoxicity (CC50) of compounds from the reconfirmation screen; assay type: cell-based; conditions: African green monkey, Vero cells; 50% cytotoxic concentration
JEV RVP [7] = conditions: Vero cells
JEV = experiment: IFA of JEV infection with calcium inhibitors on Vero and Huh-7 cells; assay type: cell-based, Japanese encephalitis virus
DENV-2 replicon = DENV-2 replicon luciferase assay in BHK-21 cells; assay type: cell-based, dengue virus type 2; conditions: 72 h
Method: FIG 4 Broad-spectrum antiviral activity of the hit drugs against flaviviruses. […] The hit drugs were added to the cells at 1 h preinfection and were present throughout the experiment. At 48 h postinfection, the cell culture supernatants were subjected to a viral titer assay (top left), while cell lysates were assessed for viral RNA quantification (top right), and duplicate cells were analyzed by IFA for E protein (green) expression (bottom). Nuclei (blue) were stained with DAPI (4′,6-diamidino-2-phenylindole). (B and C) BHK-21 cells transfected with the WNV or DENV-2 replicon were treated with the hit drugs at the indicated concentrations, and luciferase activities were determined 48 h or 72 h later.
To ensure the effectiveness of the hit drugs in flavivirus replication, BHK-21 cells transfected with the JEV, WNV, or DENV-2 replicon were incubated with each drug at the concentrations indicated above, and the luciferase activities were determined 24 h, 48 h, or 72 h later, respectively.

## COC(=O)C1=C(C)NC(C)=C(C(=O)OCCN2CCN(C(c3ccccc3)c3ccccc3)CC2)C1c1cccc([N+](=O)[O-])c1 (stereo not drawn) [Manidipine]
JEV RVP [1]
  selectivity ratio: > 62.5
JEV strain AT31 [2]
  attenuation of JEV RNA levels (inhibitory effect vs control): at least 80%
ZIKV
  ZIKV plaque formation: no plaque formation
ZIKV; Zika virus, Vero, read-out: inhibition of ZIKV viral replication, translation, and viral yields
  inhibition at 5 µM: 95%
YFV
  sensitivity of YFV to the drug: resistance
[3]
  decrease of viral titer, Q130A mutant JEV: higher than 2 log-unit
  decrease of viral titer, Q130K mutant JEV: less than 2 log units
  decrease of viral titer, Q130R mutant JEV: less than 2 log units
  reduction of viral yields, WT JEV: approximately 4 log units
  resistance of Q130E mutant JEV to the drug: no resistance
JEV RVP [4]
  IC50: 1.6 µM
JEV strain AT31 [5]
  effect on peripheral JEV infection (serum and spleen viral loads): little effect
  histopathological changes in brain (meningitis, perivascular cuffing, vacuolar degeneration, glial nodules): remarkably alleviated
JEV strain AT31 [5]; ip, 25 mg/kg
  abnormal behavior of treated mice: little abnormal behavior
  animals survived: 12 out of 15
  mortality rate: 20%
[6]
  CC50: > 100 µM

## COc1ccc(CN2CCN(C(c3ccc(F)cc3)c3ccc(F)cc3)CC2)c(OC)c1OC.Cl.Cl [lomerizine hydrochloride]
JEV RVP [7]; 10 μM compound
  level of inhibition in the primary screen: > 90%

## COC(=O)C1=C(C)NC(C)=C(C(=O)OC2CCCN(Cc3ccccc3)C2)C1c1cccc([N+](=O)[O-])c1 (stereo not drawn) [Benidipine hydrochloride]
JEV RVP [1]
  selectivity ratio: 15
JEV RVP [4]
  IC50: 3.7 µM
[6]
  CC50: 55.9 µM

## Fc1ccc(C(c2ccc(F)cc2)N2CCN(C/C=C/c3ccccc3)CC2)cc1 [flunarizine dihydrochloride]
JEV RVP [4]
  inhibition at 10 µM: > 90%

## Clc1ccc(C(c2ccccc2Cl)C(Cl)Cl)cc1 (stereo not drawn) [Mitotane]
JEV RVP [1]
  selectivity ratio: 3.9
JEV RVP [4]
  IC50: 6.6 µM
[6]
  CC50: 25.9 µM

## CCOC(=O)C1=C(C)NC(C)=C(C(=O)OC)C1c1cccc(Cl)c1Cl (stereo not drawn) [felodipine]
JEV RVP [4]
  inhibition at 10 µM: 72%

## COc1ccc(CCN(C)CCCC(C#N)(c2ccc(OC)c(OC)c2)C(C)C)cc1OC (stereo not drawn) [Verapamil]
JEV
  inhibition of JEV infection (IFA, prM-positive cells vs DMSO control): dose-dependent inhibition

## COC(=O)C1=C(C)NC(C)=C(C(=O)OCC(C)C)C1c1ccccc1[N+](=O)[O-] (stereo not drawn) [nisoldipine]
JEV RVP [4]
  inhibition at 10 µM: 75%

## CCOC(=O)C1=C(C)NC(C)=C(C(=O)OCC)C1c1ccccc1/C=C/C(=O)OC(C)(C)C [Lacidipine]
JEV RVP [1]
  selectivity ratio: 4
JEV RVP [4]
  IC50: 3.5 µM
[6]
  CC50: 14.1 µM

## Clc1ccc(CCC(Cn2ccnc2)Sc2c(Cl)cccc2Cl)cc1 (stereo not drawn) [Butoconazole Nitrate]
JEV RVP [1]
  selectivity ratio: 4
JEV RVP [4]
  IC50: 4 µM
[6]
  CC50: 15.7 µM

## CC(=O)OCOC(=O)CN(CC(=O)OCOC(C)=O)c1ccccc1OCCOc1ccccc1N(CC(=O)OCOC(C)=O)CC(=O)OCOC(C)=O [BAPTA-AM, 1,2-bis-(o-aminophenoxy)-ethane-N,N,N′,N′-tetraacetic acid, tetraacetoxymethyl ester]
JEV
  inhibition of JEV infection (IFA, prM-positive cells vs DMSO control): suppress JEV infection

## COC(=O)C1=C(C)NC(C)=C(C(=O)OCCN(C)Cc2ccccc2)C1c1cccc([N+](=O)[O-])c1 (stereo not drawn) [nicardipine hydrochloride]
JEV RVP [4]
  inhibition at 10 µM: 66%

## CC[C@@H]1/C=C(\C)C[C@H](C)C[C@H](OC)[C@H]2O[C@@](O)(C(=O)C(=O)N3CCCC[C@H]3C(=O)O[C@H](/C(C)=C/[C@@H]3CC[C@H](Cl)[C@H](OC)C3)[C@H](C)[C@@H](O)CC1=O)[C@H](C)C[C@@H]2OC [Pimecrolimus]
JEV RVP [1]
  selectivity ratio: > 32.3
JEV RVP [7]
  SI (selective index, CC50/IC50): > 32
JEV RVP [4]
  IC50: 3.1 µM
[6]
  CC50: > 100 µM

## Cc1c(O)cccc1C(=O)N[C@@H](CSc1ccccc1)[C@H](O)CN1C[C@H]2CCCC[C@H]2C[C@H]1C(=O)NC(C)(C)C [Nelfinavir Mesylate]
JEV RVP [1]
  selectivity ratio: 16.8
JEV RVP [4]
  IC50: 1.6 µM
DENV-2 replicon
  level of DENV-2 replication (replicon luciferase): no effect at the concentrations tested
[6]
  CC50: 27.1 µM

## COCCOC(=O)C1=C(C)NC(C)=C(C(=O)OC/C=C/c2ccccc2)C1c1cccc([N+](=O)[O-])c1 (stereo not drawn) [Cilnidipine]
JEV RVP [1]
  selectivity ratio: > 28.6
ZIKV
  ZIKV plaque formation: no plaque formation
JEV RVP [4]
  IC50: 3.5 µM
[6]
  CC50: > 100 µM
